Assay results taken from patent US9493486B2, “Diazaspirocycloalkane and azaspirocycloalkane” (Hoffmann-La Roche Inc., priority 2012, dated 2016).

biological target: ATX (human His-tagged) (Homo sapiens (Human), UniProt Q13822); assay: Human ATX enzyme inhibition assay (fluorescence quenching, MR121 substrate); assay type: biochemical; settings: 30 nM ATX, 1 μM MR121 substrate, 30° C.
From the text: Human ATX Enzyme Inhibition Assay
Assay working solutions were made as follows:

| Structure (SMILES) | IC50 |
| --- | --- |
| NS(=O)(=O)c1ccc(C(=O)N2CC3(CCN(C(=O)OCc4ccc(OC(F)(F)F)cc4F)CC3)C2)cc1 [Example 1.23, 2-fluoro-4-(trifluoromethoxy)benzyl 2-(4-sulfamoylbenzoyl)-2,7-diazaspiro[3.5]nonane-7-carboxylate] | 1 nM |
| O=C(OCc1cc(Cl)cc(Cl)c1)N1CCC2(C1)CN(C(=O)c1ccc3[nH]c(=O)oc3c1)C2 [Example 2, 3,5-Dichlorobenzyl 2-(2-oxo-2,3-dihydro-benzo[d]oxazole-6-carbonyl)-2,6-diazaspiro[3.4]octane-6-carboxylate] | 26 nM |
| O=C(OCc1cc(Cl)cc(Cl)c1)N1CCC2(CC1)CN(S(=O)(=O)c1ccc3[nH]c(=O)oc3c1)C2 [Example 3, 3,5-Dichlorobenzyl 2-(2-oxo-2,3-dihydro-benzo[d]oxazol-6-ylsulfonyl)-2,7-diazaspiro[3.5]nonane-7-carboxylate] | 6 nM |
| O=C(OCc1cc(F)cc(OC(F)(F)F)c1)N1CCC2(CCCN(C(=O)c3ccc4[nH]nnc4c3)C2)C1 (centres unmarked) [Example 1.20, 3-fluoro-5-(trifluoromethoxy)benzyl 7-(1H-benzo[d][1,2,3]triazole-5-carbonyl)-2,7-diazaspiro[4.5]decane-2-carboxylate] | 120 nM |
| O=C(OCc1cc(Cl)cc(Cl)c1)N1CC2(CCN(C(=O)c3ccc4[nH]c(=O)oc4c3)CC2)C1 [Example 2.2, 7-(2-oxo-2,3-dihydro-benzooxazole-6-carbonyl)-2,7-diaza-spiro[3.5]nonane-2-carboxylic acid 3,5-dichloro-benzyl ester] | 13.7 nM |
| O=C(NCc1cc(Cl)cc(Cl)c1)N1CCC2(CC1)CN(C(=O)c1ccc3[nH]nnc3c1)C2 [Example 9, 2-(1H-Benzo[d][1,2,3]triazole-5-carbonyl)-N-(3,5-dichlorobenzyl)-2,7-diazaspiro[3.5]nonane-7-carboxamide] | 1060 nM |
| CC(C)c1cc(Cl)ccc1OCC(=O)N1CCC2(CC1)CN(C(=O)C1CCc3[nH]nnc3C1)C2 (centres unmarked) [Example 1.27, 2-(4-chloro-2-isopropylphenoxy)-1-(2-(4,5,6,7-tetrahydro-1H-benzo[d][1,2,3]triazole-5-carbonyl)-2,7-diazaspiro[3.5]nonan-7-yl)ethanone] | 41 nM |
| O=C(/C=C/c1cc(Cl)cc(Cl)c1)N1CCC2(CC1)CN(C(=O)c1ccc3[nH]nnc3c1)C2 [Example 6, (E)-1-(2-(1H-benzo[d][1,2,3]triazole-5-carbonyl)-2,7-diazaspiro[3.5]nonan-7-yl)-3-(3,5-dichlorophenyl)prop-2-en-1-one] | 26 nM |
| O=C(OCc1cc(Cl)cc(Cl)c1)N1CCC2(CC1)CN(C(=O)c1ccc3[nH]c(=O)oc3c1)C2 [Example 5, 3,5-Dichlorobenzyl 2-(2-oxo-2,3-dihydrobenzo[d]oxazole-6-carbonyl)-2,7-diazaspiro[3.5]nonane-7-carboxylate] | 7 nM |
| O=C(NC1CC2(C1)CN(C(=O)c1ccc3[nH]nnc3c1)C2)OCc1cc(Cl)cc(Cl)c1 [Example 1.12, [2-(1H-benzotriazole-5-carbonyl)-2-aza-spiro[3.3]hept-6-yl]-carbamic acid 3,5-dichloro-benzyl ester] | 35 nM |
| O=C(NC1CC2(C1)CN(C(=O)CCc1cc(Cl)cc(Cl)c1)C2)c1ccc2[nH]nnc2c1 [Example 1.11, N-(2-(3-(3,5-dichlorophenyl)propanoyl)-2-azaspiro[3.3]heptan-6-yl)-1H-benzo[d][1,2,3]triazole-5-carboxamide] | 155 nM |
| O=C(OCc1ccccc1)N1CC2(CC(NS(=O)(=O)c3ccc4[nH]c(=O)oc4c3)C2)C1 [Example 3.2, benzyl 6-(2-oxo-2,3-dihydrobenzo[d]oxazole-6-sulfonamido)-2-azaspiro[3.3]heptane-2-carboxylate] | 298 nM |
| O=C(CCCc1ccccc1)N1CC2(CC(NS(=O)(=O)c3ccc4[nH]c(=O)oc4c3)C2)C1 [Example 3.1, 2-oxo-2,3-dihydro-benzooxazole-6-sulfonic acid [2-(4-phenyl-butyryl)-2-aza-spiro[3.3]hept-6-yl]-amide] | 3560 nM |
| O=C(c1ccc2[nH]nnc2c1)N1CC2(CCN(c3nnc(-c4ccc(Cl)cc4)s3)CC2)C1 [Example 8, (1H-Benzo[d][1,2,3]triazol-5-yl)(7-(5-(4-chlorophenyl)-1,3,4-thiadiazol-2-yl)-2,7-diazaspiro[3.5]nonan-2-yl)methanone] | 178 nM |

The remaining lines, values ahead:

| IC50 | Structure (SMILES) |
| --- | --- |
| 92 nM | CS(=O)(=O)c1cc(COC(=O)N2CCC3(CC2)CN(C(=O)c2ccc4[nH]nnc4c2)C3)cc(C(F)(F)F)c1 [Example 12.25, 3-(methylsulfonyl)-5-(trifluoromethyl)benzyl 2-(1H-benzo[d][1,2,3]triazole-5-carbonyl)-2,7-diazaspiro[3.5]nonane-7-carboxylate] |
| 53 nM | CS(=O)(=O)c1cc(COC(=O)N2CCC3(CC2)CN(C(=O)c2ccc4[nH]c(=O)oc4c2)C3)cc(C(F)(F)F)c1 [Example 12.26, 3-(methylsulfonyl)-5-(trifluoromethyl)benzyl 2-(2-oxo-2,3-dihydrobenzo[d]oxazole-6-carbonyl)-2,7-diazaspiro[3.5]nonane-7-carboxylate] |
| 8 nM | O=C(OCc1cc(Cl)cc(C(F)(F)F)c1)N1CCC2(CC1)CN(C(=O)c1ccc3[nH]nnc3c1)C2 [Example 12.44, 3-chloro-5-(trifluoromethyl)benzyl 2-(1H-benzo[d][1,2,3]triazole-5-carbonyl)-2,7-diazaspiro[3.5]nonane-7-carboxylate] |
| 826 nM | O=C(C#Cc1cccc(Cl)c1)N1CCC2(CC1)CN(C(=O)c1ccc3[nH]nnc3c1)C2 [Example 6.10, 1-(2-(1H-benzo[d][1,2,3]triazole-5-carbonyl)-2,7-diazaspiro[3.5]nonan-7-yl)-3-(3-chlorophenyl)prop-2-yn-1-one] |
| 17 nM | O=C(OCc1ccc(Cl)cc1Cl)N1CCC2(CC1)CN(C(=O)c1ccc3[nH]nnc3c1)C2 [Example 12.04, 2,4-dichlorobenzyl 2-(1H-benzo[d][1,2,3]triazole-5-carbonyl)-2,7-diazaspiro[3.5]nonane-7-carboxylate] |
| 168 nM | O=C(OCc1ccc(F)c(Cl)c1)N1CCC2(CC1)CN(C(=O)c1ccc3[nH]nnc3c1)C2 [Example 12.11, 3-chloro-4-fluorobenzyl 2-(1H-benzo[d][1,2,3]triazole-5-carbonyl)-2,7-diazaspiro[3.5]nonane-7-carboxylate] |
| 1 nM | O=C(OCc1ccc(OC(F)(F)F)cc1F)N1CCC2(CC1)CN(C(=O)N1CCc3[nH]nnc3C1)C2 [Example 13.01, 2-fluoro-4-(trifluoromethoxy)benzyl 2-(4,5,6,7-tetrahydro-1H-[1,2,3]triazolo[4,5-c]pyridine-5-carbonyl)-2,7-diazaspiro[3.5]nonane-7-carboxylate] |
| 457 nM | O=C(OCc1cc(Cl)cc(Cl)c1)N1CCC2(CCN(C(=O)c3ccc4[nH]nnc4c3)C2)C1 (centres unmarked) [Example 12.16, 3,5-dichlorobenzyl 7-(1H-benzo[d][1,2,3]triazole-5-carbonyl)-2,7-diazaspiro[4.4]nonane-2-carboxylate] |
| 44 nM | O=C(OCc1ccc(Cl)c(Cl)c1)N1CCC2(CC1)CN(C(=O)c1ccc3[nH]nnc3c1)C2 [Example 12.02, 3,4-dichlorobenzyl 2-(1H-benzo[d][1,2,3]triazole-5-carbonyl)-2,7-diazaspiro[3.5]nonane-7-carboxylate] |
| 68.5 nM | O=C(NC1CC2(C1)CC(C(=O)Nc1ccc3[nH]nnc3c1)C2)OCc1cc(Cl)cc(Cl)c1 (centres unmarked) [Example 12.29, 3,5-dichlorobenzyl 6-(1H-benzo[d][1,2,3]triazol-5-ylcarbamoyl)spiro[3.3]heptan-2-ylcarbamate] |
| 128 nM | O=C(C#Cc1ccc(Cl)cc1)N1CCC2(CC1)CN(C(=O)c1ccc3[nH]nnc3c1)C2 [Example 6.9, 1-(2-(1H-benzo[d][1,2,3]triazole-5-carbonyl)-2,7-diazaspiro[3.5]nonan-7-yl)-3-(4-chlorophenyl)prop-2-yn-1-one] |
| 35 nM | O=C(OCc1ccc(C(F)(F)F)cc1)N1CCC2(CC1)CN(C(=O)c1ccc3[nH]nnc3c1)C2 [Example 12.15, 4-(trifluoromethyl)benzyl 2-(1H-benzo[d][1,2,3]triazole-5-carbonyl)-2,7-diazaspiro[3.5]nonane-7-carboxylate] |
| 4980 nM | O=C(OCc1ccc(Cl)nc1)N1CCC2(CC1)CN(C(=O)c1ccc3[nH]nnc3c1)C2 [Example 12.05, (6-chloropyridin-3-yl)methyl 2-(1H-benzo[d][1,2,3]triazole-5-carbonyl)-2,7-diazaspiro[3.5]nonane-7-carboxylate] |
| 298 nM | O=C(COc1cc(Cl)cc(Cl)c1)N1CCC2(CC1)CN(C(=O)c1ccc3[nH]nnc3c1)C2 [Example 6.2, 1-(2-(1H-benzo[d][1,2,3]triazole-5-carbonyl)-2,7-diazaspiro[3.5]nonan-7-yl)-2-(3,5-dichlorophenoxy)ethanone] |
| 378 nM | CC(OC(=O)N1CCC2(CC1)CN(C(=O)c1ccc3[nH]nnc3c1)C2)c1cc(Cl)cc(Cl)c1 (centres unmarked) [Example 12.07, 1-(3,5-dichlorophenyl)ethyl 2-(1H-benzo[d][1,2,3]triazole-5-carbonyl)-2,7-diazaspiro[3.5]nonane-7-carboxylate] |
| 140 nM | CS(=O)(=O)c1cc(Cl)ccc1COC(=O)N1CCC2(CC1)CN(C(=O)c1ccc3[nH]nnc3c1)C2 [Example 12.27, 4-chloro-2-(methylsulfonyl)benzyl 2-(1H-benzo[d][1,2,3]triazole-5-carbonyl)-2,7-diazaspiro[3.5]nonane-7-carboxylate] |
| 39 nM | CS(=O)(=O)c1cc(COC(=O)N2CCC3(CC2)CN(S(=O)(=O)c2ccc4[nH]c(=O)oc4c2)C3)cc(C(F)(F)F)c1 [Example 12.45, 3-(methylsulfonyl)-5-(trifluoromethyl)benzyl 2-(2-oxo-2,3-dihydrobenzo[d]oxazol-6-ylsulfonyl)-2,7-diazaspiro[3.5]nonane-7-carboxylate] |
| 7240 nM | CS(=O)(=O)c1cc(COC(=O)N2CCC3(CC2)CN(C(=O)c2ccc4[nH]nnc4c2)C3)ccc1Cl [Example 12.06, 4-chloro-3-(methylsulfonyl)benzyl 2-(1H-benzo[d][1,2,3]triazole-5-carbonyl)-2,7-diazaspiro[3.5]nonane-7-carboxylate] |
